Results reported in patent publication US20050124618A1, “Methods of modulating angiogenesis and cancer cell proliferation” (priority 2003, published 2005).
“Also recorded” adds a separate entry of the source.

Key:
VEGF = experiment: Western blot of VEGF protein expression in TA muscle; format: in vivo, rat
Protocol: Western blot analysis to detect the presence of VEGF protein: The 100-mg TA muscle specimens were homogenized, and the protein was suspended in potassium buffer (10 mM). Five micrograms of protein (as determined by a protein assay kit, Bio-Rad; Hercules, Calif.) from the TA and a tumor cell line known to express VEGF at high levels (C6, American Type Culture Collection, 107-CCL) were separated on a 12% denaturing polyacrylamide gel. The gels were transferred to a nitrocellulose membrane, which was blocked overnight in 5% nonfat dry milk diluted in Tris-buffered saline (50 mM Tris and 750 mM NaCl, pH 8) with 0.08% Tween 20 (Bio-Rad). The blots were then incubated with a […] antibody to a peptide derived from the human VEGF sequence (1:1,000 dilution, clone G143-850, Pharmingen) for 2 h at room temperature. Washed blots were then incubated with goat anti-mouse secondary antibody at a dilution of 1:1,000 for 1 h at room temperature and then subjected to a SuperSignal West Dura chemiluminescence substrate (Pierce; Rockford, Ill.) detection system. Membranes were exposed to X-ray film (Fuji Medical; Stamford, Conn.) for 15 to 30 s and developed using a Kodak M35 X-Omat processor. For the quantitative VEGF analysis, film was always exposed for a period of time that ensured that all signals were within the linear range of the detection of the film. The VEGF band intensity was quantified using a morphometry imaging system (Metamorph, Universal Imaging; West Chester, Pa.), and values are expressed as a percentage of the C6 tumor cell standard.

[1] = test system: U251 human glioma cells spheroids; experiment: U251 spheroid-induced angiogenesis in the rat cornea pocket; format: in vivo; details: 20 μg HET0016 pellet
Protocol: (iii) U251 human glioma cells spheroids: U251 human glioma cells were generously provided by Dr. Stephen Brown (Dept. of Radiation Oncology, Henry Ford Health System, Detroit, Mich.). The cells were maintained in DMEM (Invitrogen) supplemented with 10% heat-inactivated fetal bovine serum, penicillin (10 IU/ml), streptomycin (10 μg/ml) and 10% non-essential amino acids and grown at 37° C. in a humidified incubator containing 5% CO2. U251 spheroids were obtained by a modification of the method of Carlsson and Yuhas (Carlsson J and Yuhas J M, Recent Results Cancer Res 1984, 95:1-23). […] Spheroid diameter was measured using a dissection microscope equipped with a ruler. […]
(iv) Quantitation of corneal neovascularization: Seven days after pellet implantation, the rats were deeply anesthetized as previously described with ketamine and xylazine. […]
Neovascularization was determined by comparing total vessel length in the control and experimental eyes. Vessel length was determined by tracing each vessel from the limbus to the pellet. Total length is the sum of these values in pixels and was determined using conventional image analysis software (Sigma Scan Pro, SPSS, Chicago, Ill.)
For these experiments, we used the human glioblastoma cancer cell line U251, known to be angiogenic (Hsu S C et al., Cancer Res 1996, 56:5684-91). […] Angiogenic responses were assessed 14 days after implantation of the spheroids.

U251 human glioma cells [2] = experiment: Flow cytometry of cell cycle distribution in U251 cells; format: cell-based; details: 10 μM HET0016, 24 and 48 hr
Protocol: Flow Cytometry: Cells were cultured in 100-mm dishes at densities that ensured exponential growth at the time of harvest. The harvesting and processing protocols used to detect DNA by flow cytometry with propidium iodide (PI) have been described previously (Reiners et al., Carcinogenesis 20: 1561-1566, 1999). Cells were analyzed with a Becton Dickinson FACScan in the Wayne State University Flow Cytometry Core Facility, Detroit, Mich. Percentages of cells in the G0/G1, S, and G2/M stages of the cell cycle were determined with a DNA histogram-fitting program (MODFIT; Verity Software, Topsham, Me.). A minimum of 10^4 events/sample were collected.

U251 human glioma cells [3] = experiment: DNA fragmentation and TUNEL assays in U251 cells; format: cell-based; details: HET0016
Protocol: DNA Fragmentation and TUNEL Assays: HET0016-treated cultures were washed twice with 1×PBS and incubated with lysis buffer [20 mM Tris-HCl, 10 mM EDTA, 0.3% Triton X-100]. Genomic DNA was extracted and separated on a 2% agarose gel. Separated DNA was visualized by staining gels with ethidium bromide (EtBr). […] Coverslips were washed 3× with PBS and air-dried. Samples were then fixed with a freshly prepared fixation solution (4% paraformaldehyde in PBS, pH 7.4) for 1 hr at room temperature, followed by incubation in fresh permeabilization solution (0.1% Triton X-100 in 0.1% sodium citrate) for 2 min on ice. Finally, samples were processed using in situ Cell Death Detection Kit, AP (Roche Diagnostics, Indianapolis, Ind.) according to the manufacturer's recommendations.

9L rat gliosarcoma cells = experiment: 9L cell proliferation assay (cell counting); format: cell-based
Protocol: Culture Conditions: 9L rat gliosarcoma cells were purchased from ATC (Gaithersburg, Md.) and were maintained in DMEM (Invitrogen) supplemented with 10% heat-inactivated fetal bovine serum (FBS), penicillin (10 IU/ml), streptomycin (10 μg/ml) and 10% non-essential amino acids (all purchased from Invitrogen). Cells were maintained at 37° C. in a humidified incubator containing 5% CO2. They were grown in medium containing 10% FBS, which was then replaced with serum-free medium (give type and source) where 9L cells grow exponentially.
Cell Proliferation Assays: Proliferation studies were performed with cultures plated at a density that ensured exponential growth for at least 5 days. Growth medium were generally replaced by serum free medium 24 hr after plating. […] The concentration of the ethanol added to the media never exceeded 0.1%. Cells were harvested by exposure to a solution of 0.05% Trypsin/EDTA and counted using a hemocytometer.

In the case of CCCCc1ccc(N=CNO)c(C)c1 [HET0016, N-hydroxy-N′-(4-butyl-2 methylphenyl) formamidine], the “effect on increases in VEGF protein expression induced by electrical stimulation” value (VEGF; 7 days stimulation) is reported as “did not block”, the “effect on baseline VEGF expression” value (VEGF; 7 days treatment) is reported as “Neither HET0016 nor ABT had any effect” and the “effect on corneal neovascularization induced by U251 spheroids” value ([1]; 2 weeks) is reported as “significantly inhibited; also recorded: decreases angiogenesis”. The “decrease of angiogenic responses to U251 spheroids” value ([1]; 14 days after implantation) was “approximately 70%”, the “effect on cell cycle distribution” value (U251 human glioma cells [2]) was “arresting the cell cycle at G0/G1; also recorded: Cells containing G0/G1 DNA accumulated” and the “induction of apoptosis (DNA fragmentation and TUNEL)” value (U251 human glioma cells [3]) was “does not induce apoptosis”. The “reduction of proliferation of 9L cells” value (9L rat gliosarcoma cells; 10 μM HET0016, 48 hrs) was 60%, the “effect on EGF-stimulated growth of 9L cells at 24 hr” value (9L rat gliosarcoma cells; EGF 200 ng/ml + 10 μM HET0016, 24 hr) was “prevented the effects of EGF on cells growth” and the “effect on EGF-stimulated growth of 9L cells at 48 hr” value (9L rat gliosarcoma cells; EGF 200 ng/ml + 10 μM HET0016, 48 hr) was “reduced the number of cells”. The “effect on EGF-induced growth of 9L cells” value (9L rat gliosarcoma cells; EGF 200 ng/ml + HET0016) was “almost abolished”, the “inhibition of 9L cell growth” value (9L rat gliosarcoma cells; HET0016 10 nM) was “some degree of inhibition of cell growth was apparent even though the difference from control was not significant” and the “cytotoxicity to 9L cells (cell detachment, dead cells)” value (9L rat gliosarcoma cells; HET0016 100 μM) was “may have a direct cytotoxic effect”. For the same molecule, the “effect on 9L cell number” value (9L rat gliosarcoma cells; HET0016 100 μM) was “dramatic reduction in cell number”, the “reduction of 9L cell number” value (9L rat gliosarcoma cells; HET0016 1 and 10 μM, both 24 and 48 hr) was 30-40% and the “dose dependence of inhibition of 9L growth” value (9L rat gliosarcoma cells; various concentrations of HET0016) was “decreased the proliferation of 9L cells in a dose-related manner; also recorded: produced a dose dependent inhibition”.
